Test results published in PubChem BioAssay (NCI).
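GI50 marks 50% less growth. Definition used: TGI = concentration required for complete inhibition of growth.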

Assays:
Test in all cases: inhibition of tumour cell growth, NCI panel, 384-well format
COLO 205 colon = test system: COLO 205 colon
SW-620 colon = test system: SW-620 colon
K-562 leukemia = test system: K-562 leukemia
SF-268 CNS = test system: SF-268 CNS
UACC-257 melanoma = test system: UACC-257 melanoma
SK-MEL-5 melanoma = test system: SK-MEL-5 melanoma
SK-OV-3 ovarian = test system: SK-OV-3 ovarian
HCT-116 colon = test system: HCT-116 colon
KM12 colon = test system: KM12 colon
CAKI-1 renal = test system: CAKI-1 renal
NCI-H322M lung = test system: NCI-H322M lung
A498 renal = test system: A498 renal
786-0 renal = test system: 786-0 renal
NCI-H226 lung = test system: NCI-H226 lung
NCI-H460 NSCLC = test system: NCI-H460 NSCLC
OVCAR-8 ovarian = test system: OVCAR-8 ovarian
UACC-62 melanoma = test system: UACC-62 melanoma
IGROV1 ovarian = test system: IGROV1 ovarian
MCF7 breast = test system: MCF7 breast
SK-MEL-28 melanoma = test system: SK-MEL-28 melanoma
A549 NSCLC = test system: A549 NSCLC
MDA-MB-468 breast = test system: MDA-MB-468 breast
HCC-2998 colon = test system: HCC-2998 colon
NCI-H23 lung = test system: NCI-H23 lung
MDA-MB-435 melanoma = test system: MDA-MB-435 melanoma
RPMI-8226 leukemia = test system: RPMI-8226 leukemia
OVCAR-3 ovarian = test system: OVCAR-3 ovarian
OVCAR-5 ovarian = test system: OVCAR-5 ovarian
NCI/ADR-RES ovarian = test system: NCI/ADR-RES ovarian
ACHN renal = test system: ACHN renal
SNB-19 CNS = test system: SNB-19 CNS
SK-MEL-2 melanoma = test system: SK-MEL-2 melanoma
UO-31 renal = test system: UO-31 renal
HS 578T breast = test system: HS 578T breast
HOP-62 NSCLC = test system: HOP-62 NSCLC
PC-3 prostate = test system: PC-3 prostate
OVCAR-4 ovarian = test system: OVCAR-4 ovarian
MALME-3M melanoma = test system: MALME-3M melanoma
MOLT-4 leukemia = test system: MOLT-4 leukemia
RXF 393 renal = test system: RXF 393 renal
HOP-92 NSCLC = test system: HOP-92 NSCLC
TK-10 renal = test system: TK-10 renal
T-47D breast = test system: T-47D breast
HT29 colon = test system: HT29 colon
HCT-15 colon = test system: HCT-15 colon
DU-145 prostate = test system: DU-145 prostate
CCRF-CEM leukemia = test system: CCRF-CEM leukemia

SMILES: COc1cc2c(Nc3cc(Cl)c(OC)c(Cl)c3)c(C#N)cnc2cc1OCCCN1CCN(C)CC1
- GI50 (COLO 205 colon): 0.765 µM
- TGI (COLO 205 colon): 2.05 µM
- GI50 (SW-620 colon): 1.22 µM
- TGI (SW-620 colon): 2.52 µM
- GI50 (K-562 leukemia): 0.166 µM
- TGI (K-562 leukemia): 0.33 µM
- GI50 (SF-268 CNS): 0.604 µM
- TGI (SF-268 CNS): 2.06 µM
- GI50 (UACC-257 melanoma): 0.538 µM
- TGI (UACC-257 melanoma): 1.64 µM
- GI50 (SK-MEL-5 melanoma): 0.464 µM
- TGI (SK-MEL-5 melanoma): 1.55 µM
- GI50 (SK-OV-3 ovarian): 0.167 µM
- TGI (SK-OV-3 ovarian): 1.42 µM
- GI50 (HCT-116 colon): 0.329 µM
- TGI (HCT-116 colon): 1.2 µM
- GI50 (KM12 colon): 0.412 µM
- TGI (KM12 colon): 1.58 µM
- GI50 (CAKI-1 renal): 0.18 µM
- TGI (CAKI-1 renal): 1.34 µM
- GI50 (NCI-H322M lung): 0.234 µM
- TGI (NCI-H322M lung): 1.11 µM
- GI50 (A498 renal): 0.257 µM
- TGI (A498 renal): 1.4 µM
- GI50 ([…]-0 renal): 0.672 µM
- TGI (786-0 renal): 1.99 µM
- GI50 (NCI-H226 lung): 1.28 µM
- TGI (NCI-H226 lung): 2.96 µM
- GI50 (NCI-H460 NSCLC): 1.02 µM
- TGI (NCI-H460 NSCLC): 2.23 µM
- GI50 (OVCAR-8 ovarian): 0.389 µM
- TGI (OVCAR-8 ovarian): 1.53 µM
- GI50 (UACC-62 melanoma): 1.23 µM
- TGI (UACC-62 melanoma): 2.48 µM
- GI50 (IGROV1 ovarian): 0.145 µM
- TGI (IGROV1 ovarian): 1.03 µM
- GI50 (MCF7 breast): 0.451 µM
- TGI (MCF7 breast): 1.86 µM
- GI50 (SK-MEL-28 melanoma): 1.44 µM
- TGI (SK-MEL-28 melanoma): 2.8 µM
- GI50 (A549 NSCLC): 1.1 µM
- TGI (A549 NSCLC): 2.37 µM
- GI50 (MDA-MB-468 breast): 0.288 µM
- TGI (MDA-MB-468 breast): 0.618 µM
- GI50 (HCC-2998 colon): 1.06 µM
- TGI (HCC-2998 colon): 2.26 µM
- GI50 (NCI-H23 lung): 0.401 µM
- TGI (NCI-H23 lung): 1.48 µM
- GI50 (MDA-MB-435 melanoma): 0.256 µM
- TGI (MDA-MB-435 melanoma): 0.925 µM
- GI50 (RPMI-8226 leukemia): 0.184 µM
- TGI (RPMI-8226 leukemia): 0.366 µM
- GI50 (OVCAR-3 ovarian): 0.323 µM
- TGI (OVCAR-3 ovarian): 1.28 µM
- GI50 (OVCAR-5 ovarian): 1.2 µM
- TGI (OVCAR-5 ovarian): 2.7 µM
- GI50 (NCI/ADR-RES ovarian): 1.83 µM
- TGI (NCI/ADR-RES ovarian): 3.64 µM
- GI50 (ACHN renal): 0.257 µM
- TGI (ACHN renal): 1.5 µM
- GI50 (SNB-19 CNS): 1.71 µM
- TGI (SNB-19 CNS): 3.63 µM
- GI50 (SK-MEL-2 melanoma): 0.456 µM
- TGI (SK-MEL-2 melanoma): 1.35 µM
- GI50 (UO-31 renal): 0.605 µM
- TGI (UO-31 renal): 1.85 µM
- GI50 (HS 578T breast): 0.456 µM
- TGI (HS 578T breast): 1.35 µM
- GI50 (HOP-62 NSCLC): 1.09 µM
- TGI (HOP-62 NSCLC): 2.44 µM
- GI50 (PC-3 prostate): 1.32 µM
- TGI (PC-3 prostate): 2.88 µM
- GI50 (OVCAR-4 ovarian): 0.808 µM
- TGI (OVCAR-4 ovarian): 2.17 µM
- GI50 (MALME-3M melanoma): 0.296 µM
- TGI (MALME-3M melanoma): 1.16 µM
- GI50 (MOLT-4 leukemia): 0.163 µM
- TGI (MOLT-4 leukemia): 0.313 µM
- GI50 (RXF 393 renal): 0.221 µM
- TGI (RXF 393 renal): 0.677 µM
- GI50 (HOP-92 NSCLC): 0.465 µM
- TGI (HOP-92 NSCLC): 1.49 µM
- GI50 (TK-10 renal): 0.381 µM
- TGI (TK-10 renal): 1.62 µM
- GI50 (T-47D breast): 1.33 µM
- TGI (T-47D breast): 2.63 µM
- GI50 (HT29 colon): 1.63 µM
- TGI (HT29 colon): 4.36 µM
- GI50 (HCT-15 colon): 0.878 µM
- TGI (HCT-15 colon): 2.17 µM
- GI50 (DU-145 prostate): 0.843 µM
- TGI (DU-145 prostate): 2.29 µM
- GI50 (CCRF-CEM leukemia): 0.239 µM
- TGI (CCRF-CEM leukemia): 0.486 µM
